From PubChem BioAssay (NCI) come the findings set out here.

What all share (experiment): NCI tumour cell line growth inhibition, 48 h
For test [1], the system named is KM12 colon.
Test [2] deals with HS 578T breast.
The subject of test [3] is 786-0 renal.
The subject of test [4] is HCT-116 colon.
In test [5] the test system is K-562 leukemia.
In test [6] the test system is SK-MEL-2 melanoma.
Test [7] relates to A498 renal.
The test system of test [8] is SNB-75 CNS.
The subject of test [9] is EKVX NSCLC.
Test [10] deals with OVCAR-5 ovarian.

Where “and” joins values, the source holds several entries; their conditions need not be identical. Equal values may be shown once.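 Following 48 hours of exposure in 96-well plates, responses at five concentrations were used to interpolate endpoints linearly. Here, GI50 denotes the concentration required for 50% inhibition of growth. TGI: total growth inhibition.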

`C[C@@](O)(/C=C/[C@H]1CC=CC(=O)O1)[C@@H](C[C@@H](O)\C=C/C=C\C=C\CO)OP(=O)(O)O`: the TGI is 32.2 µM and 37.8 µM in test [1]; 22.6 µM in [2]; 20.2 µM in test [3]; 8.87 µM and 11 µM in test [4]; 363 µM and 84.6 µM in test [5]; 65.2 µM and 42.4 µM in test [6]. The TGI in test [7] is 83.8 µM and 60.3 µM; in [9] it was 65.6 µM and 49.1 µM; in test [10] it was 19.1 µM and 15 µM. Also, the GI50 was 4.1 µM in [4]; 1.39 µM in [5]; 19.8 µM in test [6]; 40.2 µM in test [7]; 315 µM and 39.4 µM in test [8]; 14.7 µM in test [9]. Also, the GI50 in test [10] was 11.5 µM.
Take `CC(OC(=O)N(N(CCCl)S(C)(=O)=O)S(C)(=O)=O)c1ccc([N+](=O)[O-])cc1` (stereo unspecified): the GI50 in [1] is > 82 µM; in test [2], > 54.7 µM; in test [3], 44.7 µM; in test [4] it was > 66 µM; in test [5], 35.7 µM; in [6] it was > 100 µM. The GI50 in test [7] was 1.7 µM; in test [8], > 89.1 µM; in test [9], 23.4 µM; in test [10] it was > 100 µM. For the same molecule, the TGI in test [1] was > 100 µM; in test [2], > 92 µM; in test [3], > 100 µM; in [4], > 100 µM; in test [5], > 100 µM; in [6] it was > 100 µM. Besides, the TGI in test [7] was 43.3 µM; in test [8] it was > 100 µM; in [9] it was > 76.9 µM; in test [10] it was > 100 µM.
As to `CCN(CC)c1ccc(/C=C/C=C(/C#N)C(N)=S)cc1`, the GI50 is 9.6 µM in test [1]; 38.5 µM in test [2]; 2.76 µM in [3]; 3.58 µM in test [4]; 2.83 µM in [5]; 20.9 µM in [6]. Besides, the GI50 is 10.9 µM in test [7], 20.4 µM in [8], 6.5 µM in test [9] and 4.83 µM in [10]. The TGI in [1] was > 100 µM; in test [2], > 100 µM; in test [3], 8.69 µM; in test [4] it was 17.7 µM; in [5], 18.9 µM; in test [6], > 100 µM. The TGI in test [7] was 58.9 µM; in [8], > 100 µM; in [9] it was > 100 µM; in test [10], > 100 µM.
As to `Oc1c2c(c(O)c3ccccc13)C1(N=N2)c2ccccc2Oc2ccccc21`, the TGI in test [1] is 38.6 µM; in test [2] it was 41.5 µM; in test [3] it was 11.5 µM; in [4] it was 17.7 µM; in [5], > 100 µM; in test [6] it was 27.4 µM. In addition, the TGI in [7] was 35.7 µM; in test [8] it was 33.5 µM; in test [9], 28.3 µM; in test [10], 26.5 µM.
`CC/C=C\C[C@H](O)C/C=C1/C(=O)C=C[C@@H]1C/C=C\CCCC(=O)NC`: the GI50 in test [1] is 1.36 µM; in [2], 5.24 µM; in [3], 1.81 µM; in [4], 0.612 µM; in test [5], 1.7 µM; in test [6], 2.24 µM. For the same molecule, the GI50 in test [7] is 2.34 µM; in test [8], 10.8 µM; in [9], 3.71 µM; in test [10], 2 µM. In addition, the TGI was 2.79 µM in test [1]; 55.2 µM in test [2]; 3.6 µM in [3]; 2.04 µM in [4]; > 100 µM in test [5]; 6.35 µM in test [6]. The TGI in test [7] came to 5.12 µM; in test [8] it was 22.7 µM; in test [9] it was 15.2 µM; in test [10] it was 4.27 µM.
Turning to `CNCCCn1c2c(c3ccc(F)cc3c1=O)C(=O)c1cc(OC)cnc1-2`, the GI50 is 0.242 µM in [1]; 2.24 µM in test [2]; 0.195 µM in test [3]; 0.143 µM in [4]; 0.172 µM in [5]; 1.6 µM in [6]. Also, the GI50 is 0.369 µM in [7], 0.252 µM in [8], 0.301 µM in test [9] and 0.352 µM in [10]. Moreover, the TGI in [1] came to 1.48 µM; in test [2], 16.2 µM; in [3], 0.658 µM; in test [4] it was 0.617 µM; in test [5], 1.92 µM; in test [6], 7.37 µM. The TGI came to 1.61 µM in test [7], 3.28 µM in test [8], 1.96 µM in test [9] and 1.87 µM in [10].
In the case of `CCCCCSC1C2C(=O)C(Br)=CC13CCNc1c(O)c4c5c(c13)=[N+]2CCC=5C=N4` (stereo unspecified), the GI50 in test [1] was 2.53 µM; in [2], 5.47 µM; in [3], 2.7 µM; in test [4], 0.419 µM; in test [5], 2.62 µM; in test [6] it was 2.1 µM. Also, the GI50 in test [7] was 3.01 µM; in [8] it was 2.35 µM; in test [9], 1.82 µM; in test [10] it was 3.07 µM. Also, the TGI in test [1] worked out at 6.26 µM; in test [2], 16.7 µM; in test [3] it was 5.12 µM; in test [4], 1.28 µM; in test [5], 12.2 µM; in test [6], 5.6 µM. Besides, the TGI in test [7] came to 6.61 µM; in test [8] it was 4.56 µM; in test [9], 5.07 µM; in test [10] it was 7.08 µM.
`CN(C)c1ccc(/C=N/NC(=O)c2cccc3ccccc23)c(Cl)c1`: the GI50 in test [1] was 1.01 µM; in [2], 1.27 µM; in test [3], 5.87 µM; in test [4] it was 0.559 µM; in [5] it was 0.398 µM; in test [6], 0.815 µM. Further, the GI50 was 0.422 µM in [7], 1.57 µM in test [8], 3.51 µM in test [9] and 24.1 µM in [10]. Moreover, the TGI was > 100 µM in [1]; > 100 µM in test [2]; > 100 µM in test [3]; > 100 µM in [4]; > 100 µM in [5]; 16.5 µM in test [6]. Also, the TGI was 6.26 µM in test [7], 16.3 µM in test [8], > 100 µM in test [9] and > 100 µM in test [10].
